In US20230338310A1, “ANTI-VIRAL THERAPY” (priority 2020, published 2023):
≈ marks a conversion by molar mass, not a printed value. Entries after “also recorded” stand apart in the source; their conditions may differ.

Assays:
hCoV 229E [1] = experiment: Immunoperoxidase assay (TCID50/pfu) and microscopic examination of hCoV 229E-infected A549 lung epithelial cells; type: cell-based, human coronavirus 229E (ATCC VR/740) in human A549 cells
IFNβ = IFNβ response of A549 airway epithelial cells infected with human coronavirus 229E (IFN Beta Quantikine kit); type: cell-based; conditions: 10^3 dilution of stock HCoV 229E, single dose of 10 mg/L, 20 h at 37° C., none detected with virus alone
hCoV 229E [2] = experiment: qPCR of hCoV 229E M protein gene copies in supernatant of infected A549 lung epithelial cells; type: cell-based, human coronavirus 229E in human A549 cells; conditions: 1 or 2 mg/L daily until 5th day, virus dilutions 10^-3 to 10^-5
Method: The effect of treatment of coronavirus-infected pulmonary cells with cysteamine was studied using A549 (sample obtained from deposit, deposited under ATCC CCL-185) being a human lung epithelial cell line. Prior to viral challenge A549 cells were grown at 37° C. in 5% CO2 atmosphere in growth media F-12 with Kaighn's modification+10% FBS +pen-strep [F-12K]) to 70-80% confluency in F12-K in tissue-culture-treated 96-well plates. Immediately prior to viral challenge, cells were washed in Hanks balanced salt solution and media was replaced with 100 μl challenge medium per well (F-12K) which contained 1% serum. […] Quantitative (real-time) polymerase chain reaction (qPCR) was carried out using PrecisionPLUS qPCR Master Mix (PrimerDesign) and forward and reverse oligonucleotides (229E Sense & 229E Antisense) specific to the hCoV 229E M protein gene. Amplification was carried out using a MiniOpticon Real-Time PCR system (Bio-Rad) and data was analysed using Opticon Monitor software (Bio-Rad). Analysed samples had been exposed to 10^−3 (1.12×10^12 pfu/ml), 10^−4 (1.12×10^11 pfu/ml) and 10^−5 (1.12×10^10 pfu/ml) of hCoV 229E and conducted from quadruplicate technical replicates. The number of copies of the 229E M protein gene were determined from a standard curve containing known number of copies of the 229E M protein gene.

[3] = 14 days of cysteamine therapy adjunct to standard of care therapy; cited from earlier work
[4] = test system: SARS-CoV-2 (SARS-CoV-2-CVR-Gla-1); experiment: SARS-CoV-2 cytopathology (CPE) assay in Vero E6 MESO cells; type: cell-based
glycine decarboxylase = molecular target: T1, glycine decarboxylase (Homo sapiens, UniProt P23378); experiment: Glycine utilisation by MRC-5 fibroblasts (fluorometric glycine assay of supernatants); type: cell-based; conditions: 10 mg/L cysteamine, 4 h, glycine 300 μM, insulin 10 mg/L
T1 construct: endogenous in cells; host or cells: MRC-5 airway fibroblast cells
T1 sequence (P23378 36-1020): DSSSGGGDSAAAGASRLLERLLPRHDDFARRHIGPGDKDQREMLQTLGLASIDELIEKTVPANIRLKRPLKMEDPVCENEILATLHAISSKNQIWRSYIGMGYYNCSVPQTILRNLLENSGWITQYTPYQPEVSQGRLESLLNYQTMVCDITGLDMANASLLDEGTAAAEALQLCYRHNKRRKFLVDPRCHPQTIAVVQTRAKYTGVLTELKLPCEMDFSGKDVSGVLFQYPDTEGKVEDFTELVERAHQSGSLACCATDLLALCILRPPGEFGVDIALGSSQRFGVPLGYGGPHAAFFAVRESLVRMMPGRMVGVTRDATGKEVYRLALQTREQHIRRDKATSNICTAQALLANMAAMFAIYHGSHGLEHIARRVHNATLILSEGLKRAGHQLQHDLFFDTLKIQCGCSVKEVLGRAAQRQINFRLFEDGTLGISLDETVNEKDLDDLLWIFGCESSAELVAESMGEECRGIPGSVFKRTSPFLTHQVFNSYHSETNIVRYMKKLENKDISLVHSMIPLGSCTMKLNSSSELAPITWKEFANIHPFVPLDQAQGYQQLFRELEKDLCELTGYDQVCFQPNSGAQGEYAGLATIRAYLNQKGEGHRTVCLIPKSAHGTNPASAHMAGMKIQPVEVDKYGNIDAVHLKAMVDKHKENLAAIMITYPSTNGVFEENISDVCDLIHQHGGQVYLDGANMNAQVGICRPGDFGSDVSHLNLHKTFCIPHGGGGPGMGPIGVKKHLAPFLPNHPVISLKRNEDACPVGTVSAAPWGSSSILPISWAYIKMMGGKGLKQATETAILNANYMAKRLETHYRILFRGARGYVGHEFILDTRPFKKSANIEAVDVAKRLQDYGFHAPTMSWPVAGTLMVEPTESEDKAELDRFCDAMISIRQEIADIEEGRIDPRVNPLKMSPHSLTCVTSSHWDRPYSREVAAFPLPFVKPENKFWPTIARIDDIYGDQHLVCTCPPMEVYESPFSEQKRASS
Method: MRC-5 airway fibroblast cells were grown to 90% confluence in 2×12-well plates in EMEM+10% FBS. Cell culture media was replaced with:
Plate 1 • 1. 3×1 ml media alone (EMEM+10% FBS) • 2. 3×1 ml media+insulin (10 mg/L) • 3. 3×1 ml media+added glycine (300 μM) • 4. 3×1 ml media+glycine+insulin
As above, but with the addition of cysteamine to a final concentration of 10 mg/L Cells were then incubated at 37° C. and 5% C02 for 4 h. After incubation cell supernatants were harvested and transferred to labelled cryotubes and stored at −80° C. prior to assessment of glycine content. Insulin strongly stimulates glycine utilisation via glycine decarboxylase.
The supernatants were thawed prior to determining the glycine concentration using the fluorometric glycine assay kit from Abcam (Ab211100).
Manufacturer's instructions were followed and fluorometric assessment of glycine concentration in supernatants and standards was performed on the Biotek Synergy plate reader using 96-well black-walled plates at 535/587 nm (ex/em).

IL-6 = IL-6 response of A549 airway epithelial cells infected with human coronavirus 229E (IL-6 Duoset immunoassay); type: cell-based; conditions: 10^3 dilution of stock HCoV 229E, single doses of 2 or 10 mg/L, 20 h at 37° C., one-way ANOVA and Tukey
hCoV 229E [5] = experiment: Immunoperoxidase assay (TCID50/pfu) and microscopic examination of hCoV 229E-infected MRC-5 lung fibroblast cells; type: cell-based, human coronavirus 229E (ATCC VR/740) in human MRC-5 cells; conditions: MRC-5 cells
[6] = 2 mg/L daily for 5 days, all virus concentrations of the study

## NCCS [cysteamine, 2-Aminoethanethiol]
hCoV 229E [1]; 1 mg/L cysteamine once a day for 5 days (untreated control 2.21 × 10^14/ml)
  pfu/ml in wells infected with hCoV 229E: 3.94 × 10^15/ml pfu/ml
hCoV 229E [1]; 2 mg/L
  viral load (pfu/ml) relative to control without cysteamine: can reduce viral load
hCoV 229E [1]; 2 mg/L cysteamine once a day for 5 days (untreated control 2.21 × 10^14/ml)
  pfu/ml in wells infected with hCoV 229E: 7 × 10^9/ml pfu/ml
hCoV 229E [1]; [6]
  protection against infection with hCoV 229E: confer protection against infection
IFNβ
  IFNβ response: IFNβ is detected
hCoV 229E [2]
  viral load as number of copies of the 229E M protein gene: reduces viral load
[3]
  CRP levels versus SOCT alone: significantly reduced
  WBC levels versus SOCT alone: significantly reduced
[4]; Severe acute respiratory syndrome coronavirus 2, Vero C1008, 72 h, read-out: IC50 (CPE induced by SARS-CoV-2)
  IC50: 21.4 µg/mL (≈ 277 µM)
[4]; Vero E6 MESO cells
  CPE (Cytopathology) induced by SARS-CoV-2: reduced the CPE
[4]; Vero E6 MESO cells, 128 mg/L, 72 hours post-infection and later
  protection of the cell monolayer from SARS-CoV-2 CPE: almost complete protection
[4]; Vero E6 MESO cells, therapeutically-achievable doses, 72 hours post-infection
  protection of the cell monolayer from SARS-CoV-2 CPE: modest
Glycine decarboxylase
  insulin-driven utilisation of exogenous glycine: blocked
IL-6
  IL-6 secretion compared with viral infection alone: significantly reduced IL-6 secretion
hCoV 229E [5]; 2 mg/L
  viral load (pfu/ml) relative to control without cysteamine: can reduce viral load
hCoV 229E [5]; [6]
  protection against infection with hCoV 229E: confer protection against infection
hCoV 229E [5]; day 4, 2 mg/L cysteamine, untreated cells destroyed at 10^-4 to 10^-7 viral dilution
  cell monolayer integrity by microscopic examination: not seen at all in any of the cysteamine treated cells; also recorded: visible intact monolayer
